Measurements taken from US20040110802A1, “Antibacterial benzoic acid derivatives” (priority 2002, published 2004).
Converted amounts (≈) assume the structure as drawn.

Test system: SAUR 9218
Test: MIC Test Method, standard agar dilution
Type: cell-based
Conditions: agar dilution, Mueller Hinton agar, incubated overnight at 35° C.; lowest concentration that inhibits visible growth
In short: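 MIC (μg/ml) was read as the lowest drug level without visible growth of SAUR 9218 after overnight incubation at 35 °C. Inocula of about 10^4 to 10^5 cells per spot were applied to Mueller Hinton agar containing 2-fold serial compound dilutions.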

SAUR 9218 MIC	Compound
0.5 µg/mL	O=C(Nc1ccc(Cl)cc1C(=O)O)c1cc(-c2ccccc2)on1 [drawing 1111]
128 µg/mL	Cc1sc(C(=O)Nc2ccc(C#N)cc2C(=O)O)cc1S(=O)(=O)N(C)C(C)C(O)c1ccccc1 (stereo not shown) [drawing 960]
32 µg/mL	Cc1sc(C(=O)Nc2ccc(C#N)cc2C(=O)O)cc1S(=O)(=O)N(C)C(C)C(O)c1ccccc1 (stereo not shown) [drawing 953]

Same assay, conditions: agar dilution, Mueller Hinton agar, incubated overnight at 35° C.; lowest concentration that inhibits visible growth; read-out: SAUR 9218 MIC

MIC	Compound
0.5 µg/mL (≈ 1.3 µM)	N#Cc1ccc(NC(=O)c2nsc(-c3ccccc3)c2Cl)c(C(=O)O)c1
0.25 µg/mL (≈ 0.529 µM)	N#Cc1ccc(NC(=O)c2cc3cccc(NC(=O)Cc4ccc(Cl)cc4)c3[nH]2)c(C(=O)O)c1
0.5 µg/mL (≈ 1.02 µM)	N#Cc1ccc(NC(=O)c2[nH]c3c(OCc4ccccc4)cccc3c2Br)c(C(=O)O)c1
0.125 µg/mL (≈ 0.326 µM)	N#Cc1ccc(NC(=O)c2noc3ccc(-c4ccccc4)cc23)c(C(=O)O)c1
0.5 µg/mL (≈ 1.04 µM)	N#Cc1ccc(NC(=O)c2cc3cccc(NC(=O)Cc4ccc5c(c4)OCO5)c3[nH]2)c(C(=O)O)c1
128 µg/mL (≈ 270 µM)	Cc1ncsc1CCOc1ccccc1-c1cc(C(=O)Nc2ccc(C#N)cc2C(=O)O)no1
8 µg/mL (≈ 22.4 µM)	Cc1ccccc1-c1cncc(C(=O)Nc2ccc(C#N)cc2C(=O)O)c1
0.125 µg/mL (≈ 0.302 µM)	CN(C)S(=O)(=O)c1ccc2onc(C(=O)Nc3ccc(C#N)cc3C(=O)O)c2c1
0.5 µg/mL (≈ 1.15 µM)	CCCCCCOc1ccccc1-c1cc(C(=O)Nc2ccc(C#N)cc2C(=O)O)no1
64 µg/mL (≈ 117 µM)	Cc1c(S(=O)(=O)Nc2ccc(F)c(Cl)c2)csc1C(=O)Nc1ccc(Br)cc1C(=O)O
0.06 µg/mL (≈ 0.167 µM)	N#Cc1ccc(NC(=O)c2noc3c2CCc2ccccc2-3)c(C(=O)O)c1
0.125 µg/mL (≈ 0.276 µM)	Cc1cccc(CC(=O)Nc2cccc3cc(C(=O)Nc4ccc(C#N)cc4C(=O)O)[nH]c23)c1
0.125 µg/mL (≈ 0.275 µM)	CNS(=O)(=O)c1ccc2onc(C(=O)Nc3ccc(Br)cc3C(=O)O)c2c1
1 µg/mL (≈ 3.15 µM)	N#Cc1ccc(NC(=O)c2cc3ccccc3cn2)c(C(=O)O)c1
2 µg/mL (≈ 5.05 µM)	N#Cc1ccc(NC(=O)c2noc3ccc(NCC(O)CO)cc23)c(C(=O)O)c1 (stereo not shown)
0.5 µg/mL (≈ 1.5 µM)	N#Cc1ccc(NC(=O)c2ncc(-c3ccccc3)o2)c(C(=O)O)c1
> 128 µg/mL	N#Cc1ccc(NC(=O)c2cncc(-c3ccc(Cl)cc3)c2)c(C(=O)O)c1
0.125 µg/mL (≈ 0.277 µM)	N#Cc1ccc(NC(=O)c2noc3ccc(-c4ccccc4C(F)(F)F)cc23)c(C(=O)O)c1
1 µg/mL (≈ 2.27 µM)	N#Cc1ccc(NC(=O)c2cc3cccc(NC(=O)c4ccccc4O)c3[nH]2)c(C(=O)O)c1
0.5 µg/mL (≈ 1.04 µM)	N#Cc1ccc(NC(=O)c2noc3cc(NS(=O)(=O)c4ccc(F)cc4)ccc23)c(C(=O)O)c1
1 µg/mL (≈ 3.09 µM)	N#Cc1ccc(NC(=O)c2noc3cc(O)ccc23)c(C(=O)O)c1
2 µg/mL (≈ 6.53 µM)	N#Cc1ccc(NC(=O)c2cc3ccccc3o2)c(C(=O)O)c1
8 µg/mL	N#Cc1ccc(NC(=O)c2cc(CNCc3ccncc3)on2)c(C(=O)O)c1.O=C(O)C(F)(F)F
> 128 µg/mL	N#Cc1ccc(NC(=O)C2=NS(=O)(=O)c3ccccc32)c(C(=O)O)c1
0.5 µg/mL (≈ 1.11 µM)	Cc1ccc(CC(=O)Nc2cccc3cc(C(=O)Nc4ccc(C#N)cc4C(=O)O)[nH]c23)cc1
0.5 µg/mL (≈ 1.03 µM)	N#Cc1ccc(NC(=O)c2cc(-c3ccccc3OCCCOc3ccccc3)on2)c(C(=O)O)c1
0.5 µg/mL (≈ 0.987 µM)	N#Cc1ccc(NC(=O)c2cc3cccc(NC(=O)Cc4ccc(C(F)(F)F)cc4)c3[nH]2)c(C(=O)O)c1
0.25 µg/mL (≈ 0.605 µM)	Cn1c(C(=O)Nc2ccc(C#N)cc2C(=O)O)cc2cccc(-c3ccccc3F)c21
0.5 µg/mL (≈ 1.48 µM)	COc1ccc2c(C(=O)Nc3ccc(C#N)cc3C(=O)O)noc2c1

Further lines, the compound ahead of its results:

Compound	MIC
CCCCn1c(C(=O)Nc2ccc(Br)cc2C(=O)O)cc2ccccc21	4 µg/mL (≈ 9.63 µM)
CC(CC(=O)Nc1cccc2cc(C(=O)Nc3ccc(C#N)cc3C(=O)O)[nH]c12)CC(C)(C)C (stereo not shown)	0.5 µg/mL (≈ 1.09 µM)
CC(C)(C)O/N=C1\CCn2c(C(=O)Nc3ccc(C#N)cc3C(=O)O)cc3cccc1c32	1 µg/mL (≈ 2.32 µM)
CCCCCSc1nnc(C(=O)Nc2ccc(Br)cc2C(=O)O)o1	0.25 µg/mL (≈ 0.603 µM)
CCCn1c(C(=O)Nc2ccc(Cl)cc2C(=O)O)cc2ccccc21	4 µg/mL (≈ 11.2 µM)
Cn1c(C(=O)Nc2ccc(C#N)cc2C(=O)O)cc2ccc(OCC3CCC3)cc21	0.125 µg/mL (≈ 0.31 µM)
Cn1nc(-c2c(F)cccc2F)cc1C(=O)Nc1ccc(Br)cc1C(=O)O	128 µg/mL (≈ 293 µM)
Cn1c(C(=O)Nc2ccc(C#N)cc2C(=O)O)cc2cccc(OCc3cccnc3)c21	0.125 µg/mL (≈ 0.293 µM)
C=CCN(C1CCCC1)S(=O)(=O)c1cc(C(=O)Nc2ccc(C#N)cc2C(=O)O)sc1C	8 µg/mL (≈ 16.9 µM)
COCC(C)NCC(O)COc1cccc2cc(C(=O)Nc3ccc(C#N)cc3C(=O)O)n(C)c12.Cl (stereo not shown)	1 µg/mL
O=C(Nc1ccc(Br)cc1C(=O)O)c1ccc2c(c1)C(=O)N(CC1CCCO1)C2=O (stereo not shown)	8 µg/mL (≈ 16.9 µM)
N#Cc1ccc(NC(=O)c2csc(-c3cccnc3)n2)c(C(=O)O)c1	> 128 µg/mL
Cc1ccc(C(=O)Nc2ccc(Br)cc2C(=O)O)s1	64 µg/mL (≈ 188 µM)
Cc1c(C(=O)Cc2cncc(C(=O)Nc3ccc(C#N)cc3C(=O)O)c2)c(=O)n(-c2ccccc2)n1C	32 µg/mL (≈ 64.6 µM)
Cc1c(S(=O)(=O)NC2Cc3ccccc3C2)csc1C(=O)Nc1ccc(Br)cc1C(=O)O	16 µg/mL (≈ 29.9 µM)
N#Cc1ccc(NC(=O)c2ccco2)c(C(=O)O)c1	> 128 µg/mL
CCCCSc1cnc(C(=O)Nc2ccc(Br)cc2C(=O)O)cn1	1 µg/mL (≈ 2.44 µM)
CC(C)NC(=O)Nc1ccc2cc(C(=O)Nc3ccc(C#N)cc3C(=O)O)n(C)c2c1	0.5 µg/mL (≈ 1.19 µM)
CC1(C)OCC(CCc2cc(C(=O)Nc3ccc(Br)cc3C(=O)O)no2)O1 (stereo not shown)	4 µg/mL (≈ 9.11 µM)
N#Cc1ccc(NC(=O)c2ccc(SCCCCN)nc2)c(C(=O)O)c1.O=C(O)C(F)(F)F	2 µg/mL
O=C(Nc1ccc(Br)cc1C(=O)O)c1coc(CC[C@H](O)CO)n1	> 128 µg/mL
C#Cc1cncc(C(=O)Nc2ccc(C#N)cc2C(=O)O)c1	16 µg/mL (≈ 54.9 µM)

Compound	MIC
CCCCCSc1cnc(C(=O)Nc2ccc(C#N)cc2C(=O)O)cn1	0.125 µg/mL (≈ 0.337 µM)
CCOCC(O)COc1cccc2cc(C(=O)Nc3ccc(C#N)cc3C(=O)O)n(C)c12 (stereo not shown)	0.25 µg/mL (≈ 0.571 µM)
COCCOCCCSc1cnc(C(=O)Nc2ccc(Br)cc2C(=O)O)cn1	2 µg/mL (≈ 4.25 µM)
O=C(Nc1ccc(Br)cc1C(=O)O)c1nnc(SCc2ccccc2)s1	0.125 µg/mL (≈ 0.278 µM)
N#Cc1ccc(NC(=O)c2ccc(SCCCCCO)nn2)c(C(=O)O)c1	0.06 µg/mL (≈ 0.155 µM)
N#Cc1ccc(NC(=O)c2cc3cccc(NC(=O)C4CC4c4ccccc4)c3[nH]2)c(C(=O)O)c1 (stereo not shown)	0.5 µg/mL (≈ 1.08 µM)
COc1ccc(-c2cnc(C(=O)Nc3ccc(Br)cc3C(=O)O)o2)cc1	2 µg/mL (≈ 4.79 µM)
O=C(O)c1cc(Br)ccc1NC(=O)c1cc2ccccc2n1Cc1ccccc1	4 µg/mL (≈ 8.9 µM)
CON=C1CCn2c(C(=O)Nc3ccc(C#N)cc3C(=O)O)cc3cccc1c32	1 µg/mL (≈ 2.57 µM)
CCCn1c(C(=O)Nc2ccc(C#N)cc2C(=O)O)cc2ccccc21	2 µg/mL (≈ 5.76 µM)
N#Cc1ccc(NC(=O)c2cnc(SCc3ccccc3)cn2)c(C(=O)O)c1	0.125 µg/mL (≈ 0.32 µM)
O=C(Nc1ccc(Cl)cc1C(=O)O)c1cc(-c2ccccc2C(F)(F)F)on1	1 µg/mL (≈ 2.43 µM)
CCCCCSc1ccc(C(=O)Nc2ccc(Br)cc2C(=O)O)nn1	0.03 µg/mL (≈ 0.0707 µM)
O=C(Nc1ccc(Br)cc1C(=O)O)c1ccc2ccccc2n1	8 µg/mL (≈ 21.6 µM)
N#Cc1ccc(NC(=O)c2ccc(SCC3CC3)nc2)c(C(=O)O)c1	0.5 µg/mL (≈ 1.41 µM)
O=C(Nc1ccc(Br)cc1C(=O)O)c1ccc(Br)s1	16 µg/mL (≈ 39.5 µM)
Cc1sc(C(=O)Nc2ccc(C#N)cc2C(=O)O)cc1S(=O)(=O)N1CCN(c2ccccc2)CC1	8 µg/mL (≈ 15.7 µM)
C=CCn1c(C(=O)Nc2ccc(Br)cc2C(=O)O)cc2ccccc21	8 µg/mL (≈ 20 µM)
CC(C)Cn1c(C(=O)Nc2ccc(Cl)cc2C(=O)O)cc2ccccc21	2 µg/mL (≈ 5.39 µM)
Cn1c(C(=O)Nc2ccc(C#N)cc2C(=O)O)cc2cccc(OCC3CCCCC3)c21	0.25 µg/mL (≈ 0.579 µM)
CC(=O)Oc1ccc(N2C(=O)c3ccc(C(=O)Nc4ccc(Br)cc4C(=O)O)cc3C2=O)cc1	64 µg/mL (≈ 122 µM)
N#Cc1ccc(NC(=O)c2cc3ccccc3n2Cc2ccccc2)c(C(=O)O)c1	8 µg/mL (≈ 20.2 µM)

Compound	MIC
O=C(Nc1ccc(Br)cc1C(=O)O)c1cc(-c2ccc3c(c2)OCO3)on1	0.125 µg/mL (≈ 0.29 µM)
CC(=O)c1ccc(N2CCN(S(=O)(=O)c3cc(C(=O)Nc4ccc(C#N)cc4C(=O)O)sc3C)CC2)cc1	16 µg/mL (≈ 29 µM)
CC(=O)Nc1ccc(S(=O)(=O)N(c2ccc3cc(C(=O)Nc4ccc(C#N)cc4C(=O)O)n(C)c3c2)S(=O)(=O)c2ccc(NC(C)=O)cc2)cc1	1 µg/mL (≈ 1.37 µM)
N#Cc1ccc(NC(=O)c2cnccn2)c(C(=O)O)c1	128 µg/mL (≈ 477 µM)
Cn1c(C(=O)Nc2ccc(C#N)cc2C(=O)O)cc2cccc(NC(=O)N3CCOCC3)c21	8 µg/mL (≈ 17.9 µM)
COc1ccc(CNc2cnc(C(=O)Nc3ccc(N)cc3C(=O)O)cn2)cc1	0.25 µg/mL (≈ 0.635 µM)
N#Cc1ccc(NC(=O)c2cc3cccc(NC(=O)CCCc4ccccc4)c3[nH]2)c(C(=O)O)c1	0.5 µg/mL (≈ 1.07 µM)
O=C(Nc1ccc(O)cc1C(=O)O)c1cc(-c2ccccc2-c2ccccc2)on1	0.125 µg/mL (≈ 0.312 µM)
N#Cc1ccc(NC(=O)c2ccccn2)c(C(=O)O)c1	32 µg/mL (≈ 120 µM)
Cl.Cn1c(C(=O)Nc2ccc(C#N)cc2C(=O)O)cc2cccc(OCC(O)Cn3ccnc3)c21 (stereo not shown)	0.5 µg/mL
O=C(Nc1ccc(Br)cc1C(=O)O)c1cnc(CC[C@H](O)CO)cn1	64 µg/mL (≈ 156 µM)
O=C(Nc1ccc(Br)cc1C(=O)O)c1csc(S(=O)(=O)N2CCN(c3ccc(Cl)cc3)CC2)c1	32 µg/mL (≈ 54.7 µM)
CCCCCCSc1ccc(C(=O)Nc2ccc(Br)cc2C(=O)O)nc1	0.5 µg/mL (≈ 1.14 µM)
CC(C)(C)CC(=O)Nc1cccc2cc(C(=O)Nc3ccc(C#N)cc3C(=O)O)[nH]c12	2 µg/mL (≈ 4.78 µM)
O=C(Nc1ccc(Br)cc1C(=O)O)c1cc(-c2ccccc2)n[nH]1	> 128 µg/mL
COCCOCCCSc1ccc(C(=O)Nc2ccc(C#N)cc2C(=O)O)cn1	1 µg/mL (≈ 2.41 µM)
CCCCCn1c(C(=O)Nc2ccc(C#N)cc2C(=O)O)cc2ccccc21	2 µg/mL (≈ 5.33 µM)
N#Cc1ccc(NC(=O)c2ccc(N3CCCCC3)nc2)c(C(=O)O)c1	8 µg/mL (≈ 22.8 µM)
CCCCCCC(=O)Nc1cccc2cc(C(=O)Nc3ccc(C#N)cc3C(=O)O)[nH]c12	0.5 µg/mL (≈ 1.16 µM)
Cc1c(S(=O)(=O)N2CCN(c3cccc(C(F)(F)F)c3)CC2)csc1C(=O)Nc1ccc(Br)cc1C(=O)O	16 µg/mL (≈ 25.3 µM)
O=C(Nc1ccc(Cl)cc1C(=O)O)c1cc(-c2ccccc2Cl)on1	0.5 µg/mL (≈ 1.33 µM)
